This note sets out measurements from publication PMC4171615, “Discovery of selective inhibitors of Glutaminase-2, which inhibit mTORC1, activate autophagy and inhibit proliferation in cancer cells” (Oncotarget, 2014).

Where a chain is given by its changes, count along the chain named.

One assay concerns the target T1, KGA_ H519Q/D520K (Homo sapiens, UniProt O94925, D520K/H519Q).
T1 construct: a KGA cDNA fragment of 1644 bp (residues Leu123-Leu669); His-tag (N); made in house; host or cells: Escherichia coli
T1 sequence (O94925 123-669 H519Q/D520K): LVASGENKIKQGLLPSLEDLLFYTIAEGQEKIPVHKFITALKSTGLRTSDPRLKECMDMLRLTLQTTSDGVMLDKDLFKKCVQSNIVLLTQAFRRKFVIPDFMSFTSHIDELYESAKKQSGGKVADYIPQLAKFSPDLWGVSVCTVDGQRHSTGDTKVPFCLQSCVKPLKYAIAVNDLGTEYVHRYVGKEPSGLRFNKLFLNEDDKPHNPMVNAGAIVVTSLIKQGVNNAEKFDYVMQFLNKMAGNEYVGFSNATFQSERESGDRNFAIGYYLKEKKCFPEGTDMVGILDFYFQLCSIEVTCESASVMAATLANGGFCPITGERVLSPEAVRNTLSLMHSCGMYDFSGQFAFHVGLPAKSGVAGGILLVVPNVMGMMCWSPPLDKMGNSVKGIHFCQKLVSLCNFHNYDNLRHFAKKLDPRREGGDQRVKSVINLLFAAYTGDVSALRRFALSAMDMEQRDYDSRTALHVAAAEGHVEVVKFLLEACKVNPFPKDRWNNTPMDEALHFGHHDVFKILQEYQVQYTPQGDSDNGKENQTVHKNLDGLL
The assay can be described thus: Glutaminase activity assay, KGA mutant H519Q/D520K. The format is biochemical. As to the method: (§1) Human glutaminase activity was measured using a two-step assay as described previously. A microtiter assay format was used to facilitate the collection of multiple data points. Typically, 10 μl of compound, which was dissolved in DMSO, was added to 80 μl of an initial assay mix (0.1 mM hKGA, 0.2 mM EDTA and 50 mM Tris/acetate, pH 8.6). Samples were incubated at 25°C for 10 min and then 10 μl of 200 mM glutamine were added to the reaction mix. After adding glutamine, the reactions were incubated at 37°C for 60 min and then quenched by the addition of 10 μl of 0.6 M HCl. Subsequently, 100 μl of a second reaction mixture (3.7 units of purified bovine liver glutamate dehydrogenase, 160 mM Tris/acetate [pH 9.4], 400 mM hydrazine, 5 mM ADP and 2 mM NAD^+) was added to the stopped first reaction mixture and incubated for 30 min at 25°C. The absorbance at 340 nm was measured using a Wallac Victor2V plate reader (PerkinElmer), fitted with a 340 nm excitation filter. Sample absorbance was measured against a blank, containing no human glutaminase.
Site-directed mutagenesis was performed on the pET28a(+)-GAB or pET28a(+)-KGA plasmids using PfuUltra II Fusion HS DNA polymerase (Agilent Technologies) to create the GAB and KGA mutants. […] The sequence alignment was compared with crystal structure of the GAC (PDB code: 3UO9) and the resulting model of GAB was analyzed using the Swiss-PDB server. […]

The target of the next assay is T2, KGA_Y394L (Homo sapiens, UniProt O94925, Y394L).
T2 construct: a KGA cDNA fragment of 1644 bp (residues Leu123-Leu669); His-tag (N); made in house; host or cells: Escherichia coli
T2 sequence (O94925 123-669 Y394L): T1 sequence (O94925 123-669 H519Q/D520K) with Y272L, Q397H, K398D
Description: Glutaminase activity assay, KGA mutant Y394L. In kind it is biochemical. On the procedure:
as §1, with “Typically, 10 μl of compound, which was dissolved in DMSO, was added to 80 μl of an initial assay mix (0.1 mM hKGA, 0.2 mM EDTA and 50 mM Tris/acetate, pH 8.6).” left out
Site-directed mutagenesis was performed on the pET28a(+)-GAB or pET28a(+)-KGA plasmids using PfuUltra II Fusion HS DNA polymerase (Agilent Technologies) to create the GAB and KGA mutants. The deep view program (Version 3.7) of the Swiss-MODEL server was used to generate the three dimensional structure of homologous modeled GAB. Using the integrated sequence alignment tools and structural superimposition algorithms, the target sequence was mapped on the modeling templates.

With `CCCCCCCCCCCCCC(CC1=CC(=O)C=C(OC)C1=O)OC(C)=O` (centres unmarked) [AV-1], the concentration for half-maximal inhibition (IC50) (as a rule, the concentration that gives 50% inhibition) against KGA_ H519Q/D520K came to 230 ± 30 nM; on KGA_Y394L, 1400 ± 200 nM.
